Experimental data from patent US6136810A, “Pyrido[2,3-D]pyrimidine derivatives and pharmaceutical compositions thereof” (priority 1995, dated 2000).
Where two headings read alike, the source gives them in different places.

Columns and labels:
[1] = biological target: type IV phosphodiesterase; assay: Type IV phosphodiesterase inhibition activity measuring test (in vitro); assay type: biochemical; conditions: human granulocyte type IV PDE, 1 μM cAMP, 30° C.
Procedure: The following assay was used for the evaluation of the capability of the compounds of the present invention to inhibit type IV phosphodiesterase.
1) Physiological saline (200 ml) supplemented with dextran (3%) was added to 500 ml of heparinized peripheral blood of a healthy person and incubated at 37° C. for 40 minutes to effect precipitation of erythrocytes. The supernatant after precipitation of erythrocytes was recovered and centrifuged once, and the resulting precipitate was suspended in buffer A (140 mM NaCl, 5 mM KCl, 5 mM glucose and 10 mM HEPES, pH 7.4), overlaid on a solution for density gradient centrifugation use (Ficoll solution) and then centrifuged at room temperature for 40 minutes at 450×g, thereby separating monocyte fraction and granulocyte fraction. The granulocyte fraction was washed once with buffer B (140 mM NaCl, 5 mM KCl; 1 mM CaCl2, 1 mM MgCl2, 5 mM glucose and 10 mM HEPES, pH 7.4) and suspended in buffer C (20 mM Bis-Tris, 5 mM dithioerythritol, 2 mM EGTA and 50 mM sodium acetate, pH 6.5) containing a protease inhibitor (50 μM phenyl-methyl-sulfonyl-fluoride, 5 μM pepstatin A, 40 μM leupeptin, 20 μM aprotinin or 2 mM benzamidine) and then the cells were disrupted using polytron and sonicator and subjected to ultracentrifugation (4° C., 100,000×g, 60 minutes) to give a soluble fraction.
2) The thus obtained soluble fraction was applied to a column of 1.6×10 cm packed with Q Sepharose which had been equilibrated with buffer C. Next, the column was washed with 300 ml of buffer C to remove non-absorbed protein. Phosphodiesterase was eluted with 200 ml of buffer C having 0.05 to 1.25 M linear gradient of sodium acetate to collect 40 fractions each containing 5.0 ml eluate. Each fraction was checked for cAMP- and cGMP-metabolizing phosphodiesterase activities. Fractions having no cGMP- but cAMP-metabolizing activity and showing disappearance of the metabolizing activity by 10 μM rolipram (a type IV phosphodiesterase selective inhibitor) were collected to be used as a stock solution for the examination of type IV phosphodiesterase inhibition activity.
3) A predetermined amount of each compound to be tested was subjected to 10 minutes of reaction at 30° C. in a reaction mixture containing 40 mM Tris-HCl (pH 8.0), 5 mM MgCl2, 4 mM 2-mercaptoethanol, 0.3 μM cilostamide (an III type phosphodiesterase selective inhibitor), 1 μM cAMP, 10 nM ^3 H-cAMP and the type IV phosphodiesterase stock solution. The reaction solution was boiled at 90° C. for 1 minute, cooled in an ice bath, mixed with 1 unit of 5'-nucleotidase and then subjected to 10 minutes of reaction at 30° C., and the reaction was stopped by the addition of 1 ml of methanol. The reaction solution was passed through a Dowex 1×8 column to adsorb un-hydrolyzed material and then the radioactivity was measured.
4) Concentration of each compound to be tested which inhibits 50% of the metabolic activity of type IV phosphodiesterase was calculated and expressed as IC50. Test results: Results of the measurement of the activity of the compounds of the present invention to inhibit type IV PDE are shown in Tables 1 and 2, together with the results of the compounds illustratively disclosed in the aforementioned U.S. Patent and similar comparative compounds which were separately synthesized.

[2] = tested on: I, II, III and V type phosphodiesterase isozymes; assay: Activity to inhibit various phosphodiesterase isozymes (selectivity for type IV); assay type: biochemical, rat (types I, III); human (type V); conditions: IC50 ratio vs types I
Description: [A] In order to evaluate selectivity of the compounds of the present invention for type IV phosphodiesterase, I, II, III and V type phosphodiesterase isozymes were purified in the following manner.
1) Solutions containing various phosphodiesterase (I, II and III types) isozymes were purified from rat heart muscle cells in the following manner. Under ether anesthesia, Wistar rat was subjected to thoracotomy to excise the heart. After removing blood by perfusion with physiological saline supplemented with heparin (1 unit/ml), the heart was finely chopped with scissors.
2) Solutions containing various phosphodiesterase isozymes were obtained from the thus obtained soluble fraction in the following manner. […] Each fraction was checked for cAMP- and cGMP-metabolizing phosphodiesterase activities. […] These fractions were separately collected to be used as phosphodiesterase (types I, II and III) stock solutions for the examination of selectivity.
3) A solution containing type V phosphodiesterase was prepared from peripheral blood of a healthy person in the following manner. A 200 ml portion of physiological saline supplemented with dextran (3%) was added to 500 ml of heparinized peripheral blood and incubated at 37° C. for 40 minutes to effect precipitation of erythrocytes. The supernatant fluid after precipitation of erythrocytes was recovered and centrifuged once, and the resulting precipitate was suspended in buffer B (140 mM NaCl, 5 mM KCl, 5 mM glucose and 10 mM HEPES, pH 7.4), overlaid on a solution for density gradient centrifugation use (Ficoll solution) and then centrifuged at room temperature for 40 minutes at 450×g, thereby separating monocyte fraction and granulocyte fraction.
Each fraction was checked for cAMP- and cGMP-metabolizing phosphodiesterase activities. Fractions having only cGMP metabolizing activity were collected to be used as the type V phosphodiesterase stock solution.
[B] Inhibitory activities were measured using the thus obtained stock solutions of various phosphodiesterase isozymes.
After completion of the reaction, the reaction mixture was boiled at 90° C. for 1 minute, cooled in an ice bath, mixed with 1 unit of 5'-nucleotidase and then subjected to 10 minutes of reaction at 30° C., and the reaction was stopped by adding 1 ml of methanol. The reaction solution was passed through a Dowex 1×8 column to effect adsorption of un-metabolized cAMP or cGMP and then radioactivity in the eluate was measured using a scintillation counter.

[3] = Table 2, read-out: Type IV PDE Inhibition IC50
[4] = Table 1, read-out: Type IV PDE inhibition activity IC50

| SMILES | IC50 [1, 3] [nM] | IC50 [1, 4] [nM] | selectivity in inhibition activity against type IV PDE over the other types of PDE [2] [times] |
| --- | --- | --- | --- |
| CCn1c(=O)nc(-c2cccc(C)c2)c2ccc(C)nc21 [Example 5, 1-Ethyl-7-methyl-4-(3-methylphenyl)-pyrido[2,3-d]pyrimidin-(1H)-one] | 3.5 | – | – |
| CCc1ccc2c(-c3cccc(Cl)c3)nc(=S)n(CC)c2n1 [Example 41, 4-(3-Chlorophenyl)-1,7-diethylpyrido[2,3-d]pyrimidin-2(1H)-thione] | – | 0.85 | – |
| CCn1c(=O)nc(-c2ccc(Cl)c(Cl)c2)c2cccnc21 [compound 5, 4-(3,-4-dichlorophenyl)-1-ethylpyrido[2,3-d]pyrimidin-2(1H)-one, reference compound] | > 3000 | – | – |
| CCn1c(=O)nc(-c2ccc(Cl)cc2)c2cccnc21 [compound 3, 4-(4-chlorophenyl)-1-ethylpyrido[2,3-d]pyrimidin-2(1H)-one, reference compound] | > 3000 | – | – |
| CCn1c(=O)nc(-c2cccc([N+](=O)[O-])c2)c2ccc(C)nc21 [Example 37, 1-Ethyl-7-methyl-4-(3-nitrophenyl)-pyrido[2;3-d]pyrimidin-2(1H)-one] | – | 4.75 | – |
| CCc1ccc2c(-c3cccc(Br)c3)nc(=O)n(CC)c2n1 [Example 2, 4-(3-Bromophenyl)-1,7-diethylpyrido[2,3-d)pyrimidin-2(1H)-one] | 1.15 | – | – |
| CCn1c(=O)nc(-c2cccc(Br)c2)c2ccc(C)nc21 [Example 4, 4-(3-Bromophenyl)-1-ethyl-7-methylpyrido[2,3-d]pyrimidin-2(1H)-one] | 1.45 | – | ≥ 1000 |
| CCn1c(=O)nc(-c2cccc(Cl)c2)c2ccc(C3CC3)nc21 [Example 22, 4-(3-Chlorophenyl)-7-cyclopropyl-1-ethylpyrido[2,3-d]pyrimidin-2(1H)-one] | – | 7.8 | – |
| CCc1ccc2c(-c3cccc(Cl)c3)nc(=O)n(CC)c2n1 [Example 1, 4-(3-chlorophenyl)-1,7-diethylpyrido[2,3-d]pyrimidin-2(1H)-one] | 0.81 | – | ≥ 1000 |
| CC(C)n1c(=O)nc(-c2cccc(Cl)c2)c2cccnc21 [compound 6, 4-(3-chlorophenyl)-1-isopropylpyrido[2,3-d]pyrimidin-2(1H)-one, reference compound] | 803 | – | – |
| CCc1ccc2c(C3CCCCC3)nc(=O)n(CC)c2n1 [Example 34, 4-Cyclohexyl-1,7-diethylpyrido[2,3-d]pyrimidin-2(1H)-one] | – | 1.47 | – |
| Cc1cccc(-c2nc(=O)n(CC3CC3)c3nc(C)ccc23)c1 [Example 33, 1-Cyclopropylmethyl-7-methyl-4-(3-methylphenyl)pyrido[2,3-d]pyrimidin-2(1H)-one] | – | 6.19 | – |
| CCn1c(=O)nc(-c2ccccc2Cl)c2cccnc21 [compound 1, 4-(2-chlorophenyl)-1-ethylpyrido[2,3-d]pyrimidin-2(1H)-one, reference compound] | 2840 | – | – |

Now from value to compound:

| IC50 [1, 3] [nM] | IC50 [1, 4] [nM] | selectivity in inhibition activity against type IV PDE over the other types of PDE [2] [times] | SMILES |
| --- | --- | --- | --- |
| > 3000 | – | – | CC(C)n1c(=O)nc(-c2ccc(Cl)c(Cl)c2)c2cccnc21 [compound 4, reference compound] |
| – | 8.08 | ≥ 1000 | CCn1c(=O)nc(-c2cccc(Cl)c2)c2ccc(C(C)O)nc21 (centres unmarked) [Example 19, 4-(3-chlorophenyl)-1-ethyl-7-(1-hydroxyethyl)pyrido[2,3-d]pyrimidin-2(1H)-one] |
| 308 | – | – | CCn1c(=O)nc(-c2cccc(Cl)c2)c2cccnc21 [compound 7, 4-(3-chlorophenyl)-1-ethylpyrido[2,3-d]pyrimidin-2(1H)-one, reference compound] |
| 612 | – | – | CCn1c(=O)nc(-c2cccc(C)c2)c2cccnc21 [compound 8, 4-(3-methylphenyl)-1-ethylpyrido[2,3-d]pyrimidin-2(1H)-one, reference compound] |
| 3.7 | – | – | CCc1ccc2c(-c3cccc(C)c3)nc(=O)n(CC)c2n1 [Example 6, 1,7-Diethyl-4-(3-methylphenyl)pyrido[2,3-d]pyrimidin-2(1H)-one] |
| 2.32 | – | ≥ 1000 | CCn1c(=O)nc(-c2cccc(Cl)c2)c2ccc(C)nc21 [Example 3, 4-(3-Chlorophenyl)-1-ethyl-7-methylpyrido[2,3-d]pyrimidin-2(1H)-one] |
| – | 0.93 | – | CCn1c(=O)nc(-c2cccc(Cl)c2)c2ccc(C=NO)nc21 [Example 36, 4-(3-chlorophenyl)-1-ethyl-7-hydroxyiminomethylpyrido[2,3-d]pyrimidin-2(1H)-one] |
| > 3000 | – | – | CC(C)n1c(=O)nc(-c2ccc(Cl)cc2)c2cccnc21 [compound 2, reference compound] |
| – | 5.79 | – | CCn1c(=O)nc(-c2cccc(Cl)c2)c2ccc(C(C)SC(C)=O)nc21 (centres unmarked) [Example 40, 7-(1-acetylthioethyl)-4-(3-chlorophenyl)-1-ethylpyrido[2,3-d]pyrimidin-2(1H)-one] |
